In US20040076954A1, “Genomics-driven high speed cellular assays, development thereof, and collections of cellular reporters” (IRM, LLC, priority 2001, published 2004):

Legend:
[1] = test system: Mouse macrophage cell line RAW264.7; test: Antibiotic selection of transfected RAW264.7 cells; type: cell-based; details: transfected RAW cells
Method: Mouse macrophage cell line RAW264.7 from the ATCC was used for reporter gene assays. RAW cells were cultured at 37° C. in Dulbecco's modified Eagle medium (GibcoBRL), supplemented with 10% defined fetal bovine serum (low endotoxin, Hyclone). Transient transfection was carried out in 6 well plates with SuperFect Transfection Reagent (Qiagen) using the protocol provided by the supplier. In brief, 6×10^5 cells were seeded in each well the day before transfection. 2 μg of DNA and 10 μl of SuperFect reagent were added to the cells. For the purposed of selecting stable cell lines, vectors containing antibiotic resistant genes (e.g. hygromycin, puromycin and blasticidin) were also included at a ratio of 1:5 or 1:10 to the reporter DNA. 48 hours post-transfection, the cells were transferred into 10 cm dishes. An antibiotic was added at 150 μg/ml of hygromycin, 400 ng/ml of puromycin, or 3 μg/ml of blasticidin. […] Two weeks later, the cells which sustained antibiotic selection were seeded into three 96 well plates at the density of 0.3 cell/well. After 3-4 weeks, 44 single clones each of MALH (hygromycin) and MALB (blasticidin) were harvested and assayed. Pools of MALH or MALB were also combined for population experiments. The total selection time was 5-6 weeks.

[2] = test system: HepG2 (human hepatoma cells); test: Gene chip (Affymetrix) expression profiling of HGF-treated hepatocyte cells; type: cell-based; details: HepG2, 75 ng/ml HGF 4 hours vs untreated
Method: A method assessing the responsiveness of gene transcript to Hepatocyte Growth Factor (HGF) in a human hepatocyte cell line is exemplified.
Human hepatocyte cells, HepG2 (human hepatoma cells ATCC accession no. HB-8065), were plated at 8×10^5 cells per ml in a 4 separate wells of a 6-well plate and incubated overnight at 37° C., 5% CO2. Eighteen hours after plating, 2 wells of cells were treated with 75 ng/ml of HGF continuously for 4 hours, while two samples were left untreated. Cells were harvested by 1×PBS wash, scraped into a 15 ml conical tube and placed on ice. Samples were centrifuged to pellet the cells, flash frozen on dry ice and submitted for RNA extraction.
The following protocol was used to isolate total RNA from the 2 untreated and 2 treated samples:
The following protocol was used to generate cDNA then cRNA from the total RNA preparation:
The following protocol was used to hybridize the cRNA to gene chips (Affymetrix):
Following the hybridization, the chips are analyzed for relative fluorescence intensity corresponding to each set of oligonucleotides. The location of each oligonucleotide and the gene it represents on the array is known. Using, for example, Microsoft Excel, a list of each oligonucleotide, corresponding gene and relative intensity are recorded and saved. The data sets for treated and untreated are compared side-by-side for average-fold change. The resulting list is parsed by magnitude fold-change and can be represented as text (Excel), or visually (Gene-Spring or Tree-view).
The following details the results of a chip study. […] The list begins with the greatest fold induction (FC) and ends with greatest fold repression.

In the case of CN(CC[C@H](N)CC(=O)N[C@H]1C=C[C@H](n2ccc(N)nc2=O)O[C@@H]1C(=O)O)C(=N)N [blasticidin], the “cell death within 3 days of antibiotic selection” value ([1]; 3 μg/ml blasticidin) is reported as “Massive cell death”.
In the case of COc1ccc(C[C@H](N)C(=O)N[C@H]2[C@@H](O)[C@H](n3cnc4c(N(C)C)ncnc43)O[C@@H]2CO)cc1 [puromycin], the “cell death within 3 days of antibiotic selection” value ([1]; 400 ng/ml puromycin) is reported as “not”.
With Hepatocyte Growth Factor [HGF] the “FC (fold change) 277_at myeloid cell differentiation protein (MCL1) (L08246)” value [2] was 6 fold, the “FC (fold change) 529_at dual-specificity protein phosphatase (U15932)” value [2] was 5 fold and the “FC (fold change) 660_at mitochondrial 1,25-dihydroxyvitamin D3 24-hydroxylase (L13286)” value [2] was 9 fold. The “FC (fold change) 1237_at IEX-1 radiation-inducible immediate-early gene (S81914)” value [2] was 8 fold, the “FC (fold change) 1379_at HUMECK protein tyrosine kinase (M59371)” value [2] was 8 fold and the “FC (fold change) 1890_at TGF-beta superfamily protein (AB000584)” value [2] was 5 fold. The “FC (fold change) 2057_g_at fibroblast growth factor (FGF) receptor-1 (M34641)” value [2] was 5 fold, the “FC (fold change) 31888_s_at IPL (AF001294)” value [2] was 14 fold and the “FC (fold change) 32786_at jun-B (X51345)” value [2] was 7 fold. The “FC (fold change) 33146_at myeloid cell differentiation protein (MCL1) (L08246)” value [2] was 6 fold, the “FC (fold change) 34476_r_at epiregulin (D30783)” value [2] was 15 fold and the “FC (fold change) 34898_at amphiregulin (AR) (M30704)” value [2] was 13 fold. For the same molecule, the “FC (fold change) 35372_r_at beta-thromboglobulin-like protein (M17017)” value [2] was 8 fold, the “FC (fold change) 35454_at KIAA0450 protein (AB007919)” value [2] was 5 fold and the “FC (fold change) 35597_at C8FW phosphoprotein (AJ000480)” value [2] was 7 fold. The “FC (fold change) 36097_at transcription factor ETR101 (M62831)” value [2] was 5 fold, the “FC (fold change) 36324_at A2b adenosine receptor (X68487)” value [2] was 6 fold and the “FC (fold change) 36344_at proteinase-activated receptor-2 (U34038)” value [2] was 7 fold. For the same molecule, the “FC (fold change) 36345_g_at proteinase-activated receptor-2 (U34038)” value [2] was 8 fold, the “FC (fold change) 36543_at placental tissue factor (J02931)” value [2] was 7 fold and the “FC (fold change) 36711_at novel MAFF LIKE protein (AL021977)” value [2] was 8 fold. The “FC (fold change) 36742_at putative zinc finger protein (ZNFB7) (U34249)” value [2] was 5 fold, the “FC (fold change) 37680_at gravin (U81607)” value [2] was 7 fold and the “FC (fold change) 38125_at beta-migrating plasminogen activator inhibitor I (M14083)” value [2] was 13 fold. For the same molecule, the “FC (fold change) 38247_at proteinase activated receptor-2 mRNA, 3UTR (U67058)” value [2] was 9 fold, the “FC (fold change) 38772_at CYR61 (Y11307)” value [2] was 9 fold and the “FC (fold change) 39105_at vasodilator-stimulated phosphoprotein (VASP) (Z46389)” value [2] was 11 fold. The “FC (fold change) 39248_at za55a01.s1 cDNA (N74607)” value [2] was 6 fold, the “FC (fold change) 40385_at chemokine exodus-1 mRNA (U64197)” value [2] was 19 fold and the “FC (fold change) 40614_at SHB (X75342)” value [2] was 8 fold. The “FC (fold change) 41193_at DUSP6 (AB013382)” value [2] was 6 fold, the “FC (fold change) 41524_at inositol polyphosphate 1-phosphatase (L08488)” value [2] was 6 fold and the “FC (fold change) 1974_s_at p53 cellular tumor antigen (X02469)” value ([2]; negative = repression) was −5 fold. For the same molecule, the “FC (fold change) 2089_s_at H06628 similar to ERBB-3 receptor protein-tyrosine kinase precursor” value ([2]; negative = repression) was −5 fold, the “FC (fold change) 32787_at epidermal growth factor receptor (HER3) (M34309)” value ([2]; negative = repression) was −8 fold and the “FC (fold change) 36048_at HRIHFB2436 (AB015342)” value ([2]; negative = repression) was −5 fold. The “FC (fold change) 37487_at KIAA1093 protein (AB029016)” value ([2]; negative = repression) was −5 fold.
